Experimental data: US7812022B2 (GlaxoSmithKline LLC, priority 2004, dated 2010)

Key:
[1] = test system: BT474 and HN5 tumor cell lines; assay: Methylene blue growth inhibition assay (cellular Method A); format: cell-based, Human; conditions: Homo sapiens, BT-474, 72 h, 3 days, read-out: Activity (Method): growth inhibition IC50 class
Method in brief: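 Growth inhibition measured by methylene blue staining of biomass (OD 620) after 3 days' compound exposure at 37° C, final DMSO 0.3%. Cell lines: BT474 (10,000/well), HN5 (3,000/well) and Colo205, all in DMEM with 10% FBS; IC50 fitted by nonlinear regression against vehicle-treated wells.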

Colo205 tumor cell lines = assay: Methylene blue growth inhibition assay (cellular Method A), Colo205; format: cell-based, Human; conditions: Homo sapiens, COLO 205, 72 h, 3 days, read-out: Activity (Method): growth inhibition IC50 class
Protocol: Human breast (BT474) and head and neck (HN5) were cultured in low glucose DMEM (Life Technologies 12320-032) containing 10% fetal bovine serum (FBS). Human colon tumor cells (Colo205) were cultured in DMEM (Invitrogen, 10564) containing 10% FBS. The SV40 transformed human mammary epithelial cell line HB4a was transfected with either human H-ras cDNA (HB4a r4.2) or the human c-ErbB2 cDNA (HB4a c5.2). The HB4a clones were cultured in RPMI containing 10% FBS, insulin (5 g/mL), hydrocortisone (5 g/mL), supplemented with the selection agent hygromycin B (50 g/mL). All lines were grown in a humidified incubator at 37° C. in 95% air, 5% CO2. Cells were harvested using trypsin/EDTA, counted using a haemocytometer, and plated in 100 microliters of the appropriate media, at the following densities, in a 96-well tissue culture plate (Falcon 3075): BT474 10,000 cells/well, HN5 3,000 cells/well. The next day, compounds were diluted in DMEM containing […] gentamicin, at twice the final required concentration, from 10 mM stock solutions in DMSO. 100 microliters/well of these dilutions were added to the 100 microliters of media currently on the cell plates. Medium containing 0.6% DMSO was added to control wells. Compounds diluted in DMEM were added to all cell lines. The final concentration of DMSO in all wells was 0.3%. Cells were returned to the incubator (37° C., 10% CO2) for 3 days. Medium was then removed by aspiration. Cell biomass was estimated by staining cells with 90 microliters per well methylene blue (Sigma M9140, 0.5% in 1:1 ethanol:water), and incubation at rt for at least 30 minutes. Stain was removed, and the plates rinsed by immersion in deionized water and air-dried. To release stain from the cells 100 microliters of solubilization solution was added (1% N-lauroyl sarcosine, Sodium salt, Sigma L5125, in PBS), and plates were shaken gently for about 30 minutes. Optical density at 620 nm was measured on a microplate reader. Percent inhibition of cell growth was calculated relative to vehicle treated control wells. Concentration of compound that inhibits 50% of control cell growth (IC50) was interpolated using nonlinear regression (Levenberg-Marquardt) and the equation, y=Vmax*(1−(x/(K+x)))+Y2, where “K” was equal to the IC50. Method B: Celltiter Glo® Growth Inhibition Assays

ErbB2 or EGFR = molecular target: T1, ErbB2 or EGFR; assay: ErbB family substrate phosphorylation enzyme assay (HTRF), Method A or Method B; format: biochemical
T1 construct: enzymes purified from a baculovirus expression system; Reagent production was conducted essentially as described in Brignola, P. S., et al, (2002) J. Biol. Chem. 277(2): 1576-1585
Method in brief: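 Baculovirus-expressed EGFR or ErbB2 (0.8 or 10 nM in enzyme mix) phosphorylates biotinylated Peptide C with 20 µM ATP and 0.8 µM peptide (substrate-mix levels), MnCl2, pH 7.5. Reaction ran 90 min at 20 °C with EDTA stop and HTRF anti-phosphotyrosine read. Method A: enzyme added last; Method B: 1 h enzyme–compound preincubation.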

[2] = Method B: enzyme mix pre-incubated with compound 1 hour at 20° C., started with substrate mix
[3] = Method A: substrate mix added first, reaction started with enzyme mix

| IC50 [1] | IC50 (Colo205 tumor cell lines) | SMILES | Activity (Method): pIC50 class against ErbB2 or EGFR (ErbB2 or EGFR; [2]) | Activity (Method): pIC50 class against ErbB2 or EGFR (ErbB2 or EGFR; [3]) |
| --- | --- | --- | --- | --- |
| < 100 nM | 100 to 1000 nM | O=C(Nc1cccc(-c2nn3ccccc3c2-c2ccnc(Nc3cccc(OCCN4CCOCC4)c3)n2)c1)c1c(F)cccc1F [Example 60, 2,6-Difluoro-N-[3-(3-{2-[(3-{[2-(4-morpholinyl)ethyl]-oxy}phenyl)amino]-4-pyrimidinyl}pyrazolo[1,5-a]pyridin-2-yl)phenyl]benzamide] | +++ (B) (at least one pIC50 measurement of greater than 7 against either ErbB2 or EGFR) | – |
| 100 to 1000 nM | > 1000 nM | C=CCN(C)CCOc1cccc(Nc2nccc(-c3c(-c4cccc(NC(=O)c5c(F)cccc5F)c4)nn4ccccc34)n2)c1 [Example 195, 2,6-Difluoro-N-{3-[3-(2-{[3-({2-[methyl(2-propen-1-yl)amino]ethyl}oxy)phenyl]amino}-4-pyrimidinyl)pyrazolo[1,5-a]pyridin-2-yl]phenyl}benzamide] | +++ (B) (at least one pIC50 measurement of greater than 7 against either ErbB2 or EGFR) | – |
| < 100 nM | > 1000 nM | O=C(Nc1cccc(-c2nn3ccccc3c2-c2ccnc(Nc3ccc(OCCN4CCCCC4)c(F)c3)n2)c1)c1c(F)cccc1F [Example 134, 2,6-Difluoro-N-[3-(3-{2-[(3-fluoro-4-{[2-(1-piperidinyl)ethyl]oxy}phenyl)amino]-4-pyrimidinyl}pyrazolo[1,5-a]pyridin-2-yl)phenyl]benzamide] | – | +++ (A) (at least one pIC50 measurement of greater than 7 against either ErbB2 or EGFR) |
| < 100 nM | 100 to 1000 nM | CC(c1cccc(Nc2nccc(-c3c(-c4cccc(NC(=O)c5c(F)cccc5F)c4)nn4ccccc34)n2)c1)S(C)(=O)=O (racemic) [Example 117, 2,6-Difluoro-N-(3-{3-[2-({3-[1-(methylsulfonyl)ethyl]-phenyl}amino)-4-pyrimidinyl]pyrazolo[1,5-a]pyridin-2-yl}phenyl)benzamide] | – | ++ (A) (at least one pIC50 measurement greater than 6 against either ErbB2 or EGFR but no measurement greater than pIC50 of 7) |
| > 1000 nM | > 1000 nM | O=C(Nc1cccc(-c2nn3ccccc3c2-c2ccnc(Nc3ccccc3)n2)c1)c1ccc(Cl)cc1 [Example 142, 4-Chloro-N-(3-{3-[2-(phenylamino)-4-pyrimidinyl]pyrazolo[1,5-a]pyridin-2-yl}phenyl)benzamide] | – | ++ (A) (at least one pIC50 measurement greater than 6 against either ErbB2 or EGFR but no measurement greater than pIC50 of 7) |
| < 100 nM | 100 to 1000 nM | CN(C)C1Cc2ccc(Nc3nccc(-c4c(-c5cccc(NC(=O)c6c(F)cccc6F)c5)nn5ccccc45)n3)cc2C1 (centres unmarked) [Example 176, N-{3-[3-(2-{[2-(Dimethylamino)-2,3-dihydro-1H-inden-5-yl]amino}-4-pyrimidinyl)pyrazolo[1,5-a]pyridin-2-yl]phenyl}-2,6-difluorobenzamide] | – | – |

The next lines start with the compound.

| SMILES | IC50 [1] | IC50 (Colo205 tumor cell lines) | Activity (Method): pIC50 class against ErbB2 or EGFR (ErbB2 or EGFR; [2]) | Activity (Method): pIC50 class against ErbB2 or EGFR (ErbB2 or EGFR; [3]) |
| --- | --- | --- | --- | --- |
| NC(=O)c1ccc(Nc2nccc(-c3c(-c4cccc(NC(=O)c5c(F)cccc5F)c4)nn4ccccc34)n2)cc1 [Example 104, N-{3-[3-(2-{[4-(Aminocarbonyl)phenyl]amino}-4-pyrimidinyl)pyrazolo[1,5-a]pyridin-2-yl]phenyl}-2,6-difluorobenzamide-ethane (1:1)] | < 100 nM | 100 to 1000 nM | – | – |
| CN1CCN(CCCNc2ccc(Nc3nccc(-c4c(-c5cccc(NC(=O)c6c(F)cccc6F)c5)nn5ccccc45)n3)cc2F)CC1 [Example 42, 2,6-Difluoro-N-[3-(3-{2-[(3-fluoro-4-{[3-(4-methyl-1-piperazinyl)propyl]amino}phenyl)amino]-4-pyrimidinyl}pyrazolo[1,5-a]pyridin-2-yl)phenyl]benzamide] | < 100 nM | > 1000 nM | +++ (B) (at least one pIC50 measurement of greater than 7 against either ErbB2 or EGFR) | – |
| O=C(Nc1cccc(-c2nn3ccccc3c2-c2ccnc(Nc3ccc(-c4cc[nH]n4)cc3)n2)c1)c1c(F)cccc1F [Example 101, 2,6-Difluoro-N-{3-[3-(2-{[4-(1H-pyrazol-3-yl)phenyl]amino}-4-pyrimidinyl)pyrazolo[1,5-a]pyridin-2-yl]phenyl}benzamide] | 100 to 1000 nM | > 1000 nM | – | – |
| O=C(Nc1cccc(-c2nn3ccccc3c2-c2ccnc(Nc3cccc(O)c3)n2)c1)c1c(F)cccc1F [Example 59, 2,6-Difluoro-N-[3-(3-{2-[(3-hydroxyphenyl)amino]-4-pyrimidinyl}pyrazolo[1,5-a]pyridin-2-yl)phenyl]benzamide] | < 100 nM | > 1000 nM | +++ (B) (at least one pIC50 measurement of greater than 7 against either ErbB2 or EGFR) | – |
| COc1ccc(Nc2nccc(-c3c(-c4cccc(NC(=O)c5cc(F)ccc5F)c4)nn4ccccc34)n2)cc1F [Example 46, 2,5-Difluoro-N-{3-[3-(2-{[3-fluoro-4-(methyloxy)phenyl]amino}-4-pyrimidinyl)pyrazolo[1,5-a]pyridin-2-yl]phenyl}benzamide] | > 1000 nM | > 1000 nM | + (B) (no pIC50 measurement greater than 6 against either ErbB2 or EGFR) | – |
| C=CCN(C)CCOc1cccc(Nc2nccc(-c3c(-c4cccc(NC(=O)c5cc(F)ccc5F)c4)nn4ccccc34)n2)c1 [Example 196, 2,5-Difluoro-N-{3-[3-(2-{[3-({2-[methyl(2-propen-1-yl)amino]ethyl}oxy)phenyl]amino}-4-pyrimidinyl)pyrazolo[1,5-a]pyridin-2-yl]phenyl}benzamide] | < 100 nM | 100 to 1000 nM | +++ (B) (at least one pIC50 measurement of greater than 7 against either ErbB2 or EGFR) | – |
| O=C(Nc1cccc(-c2nn3ccccc3c2-c2ccnc(Nc3cccc(-c4cnco4)c3)n2)c1)c1cc(F)ccc1F [Example 44, 2,5-Difluoro-N-{3-[3-(2-{[3-(1,3-oxazol-5-yl)phenyl]amino}-4-pyrimidinyl)pyrazolo[1,5-a]pyridin-2-yl]phenyl}benzamide] | < 100 nM | 100 to 1000 nM | – | +++ (A) (at least one pIC50 measurement of greater than 7 against either ErbB2 or EGFR) |
| CN1CCN(CCOc2ccc(Nc3nccc(-c4c(-c5cccc(NC(=O)c6c(F)cccc6F)c5)nn5ccccc45)n3)cc2)CC1 [Example 106, 2,6-Difluoro-N-[3-(3-{2-[(4-{[2-(4-methyl-1-piperazinyl)ethyl]oxy}phenyl)amino]-4-pyrimidinyl}pyrazolo[1,5-a]pyridin-2-yl)phenyl]benzamide] | < 100 nM | 100 to 1000 nM | – | +++ (A) (at least one pIC50 measurement of greater than 7 against either ErbB2 or EGFR) |
| O=C(Nc1ccccc1)Nc1cccc(-c2nn3ccccc3c2-c2ccnc(Nc3ccc4c(c3)OCCO4)n2)c1 [Example 1, 1-(3-{3-[2-(2,3-Dihydro-benzo[1,4]dioxin-6-ylamino)-pyrimidin-4-yl]-pyrazolo[1,5-]pyridin-2-yl}-phenyl)-3-phenyl-urea] | > 1000 nM | > 1000 nM | – | ++ (A) (at least one pIC50 measurement greater than 6 against either ErbB2 or EGFR but no measurement greater than pIC50 of 7) |
| COc1ccc(Nc2nccc(-c3c(-c4cccc(NC(=O)c5c(F)cccc5F)c4)nn4ccccc34)n2)cc1N1CCNCC1 [Example 111, 2,6-Difluoro-N-{3-[3-(2-{[4-(methyloxy)-3-(1-piperazinyl)phenyl]amino}-4-pyrimidinyl)pyrazolo[1,5-a]pyridin-2-yl]phenyl}benzamide] | < 100 nM | – | +++ (B) (at least one pIC50 measurement of greater than 7 against either ErbB2 or EGFR) | – |
